Measurements as given in ChEMBL document CHEMBL1136665 (Bioorg Med Chem Lett, 2003).

Columns and labels:
[1] = Clearance rate following an oral dose of 20 mg/kg in rats; assay type: ADME, organism-based; design: dose 20 mg/kg, route oral; settings: rat, in vivo, read-out: Clearance
[2] = Peak plasma concentration (Cmax) following an oral dose of […] mg/kg in rats; assay type: ADME, organism-based; settings: rat, 20 mg/kg
[3] = target: T1, Prostaglandin G/H synthase 1 (Homo sapiens, UniProt P23219); experiment: Inhibitory concentration was measured […] the sensitive U937 microsome assay; assay type: microsomes
[4] = target: T2, Prostaglandin G/H synthase 2 (Homo sapiens, UniProt P35354); experiment: Inhibitory concentration was measured against Cyclooxygenase-2 in human whole blood; assay type: tissue-based
T2 sequence (P35354 whole entry): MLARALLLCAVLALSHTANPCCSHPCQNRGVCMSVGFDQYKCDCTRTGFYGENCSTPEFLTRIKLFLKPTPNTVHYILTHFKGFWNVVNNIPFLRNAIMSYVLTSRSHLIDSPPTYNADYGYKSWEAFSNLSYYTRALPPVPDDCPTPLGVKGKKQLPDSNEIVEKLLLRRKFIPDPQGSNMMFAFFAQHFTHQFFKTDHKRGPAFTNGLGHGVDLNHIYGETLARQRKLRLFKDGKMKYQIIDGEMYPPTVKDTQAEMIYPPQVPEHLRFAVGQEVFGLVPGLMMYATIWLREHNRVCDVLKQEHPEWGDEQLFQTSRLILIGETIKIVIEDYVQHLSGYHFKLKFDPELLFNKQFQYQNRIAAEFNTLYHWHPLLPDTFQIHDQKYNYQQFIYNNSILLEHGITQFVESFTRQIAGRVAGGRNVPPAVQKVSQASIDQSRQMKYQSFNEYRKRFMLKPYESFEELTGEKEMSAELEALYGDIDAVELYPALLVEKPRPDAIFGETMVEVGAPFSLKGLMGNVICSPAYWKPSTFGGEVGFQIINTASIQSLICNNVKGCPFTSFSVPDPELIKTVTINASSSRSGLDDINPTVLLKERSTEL

Rattus norvegicus [5] = experiment: Inhibition of carrageenan induced rat paw oedema.; assay type: functional
[6] = target: T2, Prostaglandin G/H synthase 2
[7] = target: T1, Prostaglandin G/H synthase 1; assay type: microsomes
Description: Inhibitory concentration was measured against Prostaglandin G/H synthase 1 in the sensitive U937 microsome assay

[8] = target: T2, Prostaglandin G/H synthase 2; remark: listed apart in the source
Description: Inhibitory concentration was measured against Prostaglandin G/H synthase 2 in human whole blood

[9] = target: T1, Prostaglandin G/H synthase 1; assay type: tissue-based, Blood
Description: Inhibitory concentration was measured against Prostaglandin G/H synthase 1 in human whole blood

[10] = Oral bioavailability in rat; assay type: ADME, organism-based; settings: in vivo
[11] = Aqueous solubility was determined; assay type: physicochemical
Rattus norvegicus [12] = species: Rattus norvegicus; experiment: Effective concentration to reduce pyrexia was determined in rats; assay type: functional
Rattus norvegicus [13] = species: Rattus norvegicus; experiment: Inhibitory dose to produce analgesia was determined in rats; assay type: functional; settings: read-out: ID50 (the source's name)
Rattus norvegicus [14] = species: Rattus norvegicus; experiment: Inhibitory dose to reduce arthritis was determined in rats; assay type: functional; settings: read-out: ID50 (the source's name)

T1 sequence (P23219 whole entry): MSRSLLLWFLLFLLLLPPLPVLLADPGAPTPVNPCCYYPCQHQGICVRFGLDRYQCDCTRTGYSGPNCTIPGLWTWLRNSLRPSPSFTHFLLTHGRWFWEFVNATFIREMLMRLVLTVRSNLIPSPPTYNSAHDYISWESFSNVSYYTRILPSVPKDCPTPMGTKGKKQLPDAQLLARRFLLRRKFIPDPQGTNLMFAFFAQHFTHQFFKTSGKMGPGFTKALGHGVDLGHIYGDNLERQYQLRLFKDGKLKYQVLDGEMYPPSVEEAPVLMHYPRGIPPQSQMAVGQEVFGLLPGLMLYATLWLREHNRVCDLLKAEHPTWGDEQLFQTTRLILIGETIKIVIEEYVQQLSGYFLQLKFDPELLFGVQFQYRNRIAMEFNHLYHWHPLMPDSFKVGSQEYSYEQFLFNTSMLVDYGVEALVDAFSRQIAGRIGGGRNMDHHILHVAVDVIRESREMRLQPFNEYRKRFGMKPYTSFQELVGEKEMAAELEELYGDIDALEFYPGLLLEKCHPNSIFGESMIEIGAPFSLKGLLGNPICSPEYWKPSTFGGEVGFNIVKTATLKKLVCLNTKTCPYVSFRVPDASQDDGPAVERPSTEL

Row | IC50 [6] [nM] | IC50 [7] [µM] | IC50 [8] [µM] | SMILES | ED50 (Rattus norvegicus [5]) [mg/kg] | also measured
1 | 380 | – | – | CC1(O)OC(=O)C(c2ccc(F)cc2)=C1c1ccc(S(C)(=O)=O)cc1 (configuration not stated) | 1.8 | CL/F [1]: 2.6 mL/min; Cmax [2]: 60 µM; IC50 [3]: > 100 µM; IC50 [4]: 1800 nM
2 | – | 3 | 0.8 | CC(C)OC1(C)OC(=O)C(c2ccc(F)cc2)=C1c1ccc(S(C)(=O)=O)cc1 (configuration not stated) | – | –
3 | 70 | 35 | 0.85 | CC1(O)OC(=O)C(c2ccc(Cl)c(Cl)c2)=C1c1ccc(S(C)(=O)=O)cc1 (configuration not stated) | 1.9 | IC50 [9]: 75 µM
4 | 1200 | > 100 | 7.5 | CC1(O)OC(=O)C(c2ccc(Cl)cc2Cl)=C1c1ccc(S(C)(=O)=O)cc1 (configuration not stated) | – | –
5 | 160 | > 100 | 1.2 | CC1(O)OC(=O)C(c2ccccc2)=C1c1ccc(S(C)(=O)=O)cc1 (configuration not stated) | 1.5 | IC50 [9]: > 90 µM
6 | > 5000 | > 10 | > 10 | CC1(O)OC(=O)C(Sc2ccccc2)=C1c1ccc(S(C)(=O)=O)cc1 (configuration not stated) | – | –
7 | 69 | 14 | – | COC1(C)OC(=O)C(c2ccc(F)cc2)=C1c1ccc(S(C)(=O)=O)cc1 (configuration not stated) | 2.8 | IC50 [9]: 57 µM; IC50 [4]: 100 nM
8 | 320 | > 10 | 0.4 | CC1(OCC(F)(F)F)OC(=O)C(c2ccc(F)cc2)=C1c1ccc(S(C)(=O)=O)cc1 (configuration not stated) | 6.4 | bioavailability [10]: 35%
9 | > 5000 | > 10 | > 33 | CC1(O)OC(=O)C(Oc2ccc(F)c(F)c2)=C1c1ccc(S(C)(=O)=O)cc1 (configuration not stated) | – | –
10 | 410 | > 300 | 4.3 | CC(C)c1ccc(C2=C(c3ccc(S(C)(=O)=O)cc3)C(C)(O)OC2=O)cc1 (configuration not stated) | – | IC50 [9]: > 100 µM
11 | 110 | > 100 | 24 | CC1(O)OC(=O)C(c2ccsc2)=C1c1ccc(S(C)(=O)=O)cc1 (configuration not stated) | – | –
12 | – | – | – | CC(=O)/C(=C(\C(=O)[O-])c1ccc(Cl)cc1)c1ccc(S(C)(=O)=O)cc1.[Na+] | 1.8 | solubility [11]: > 100 mg/mL; ED50 (Rattus norvegicus [12]): 0.7 mg/kg; ED50 (Rattus norvegicus [13]): 0.8 mg/kg; ED50 (Rattus norvegicus [14]): 0.6 mg/kg
13 | 250 | > 100 | 12.8 | CC1(O)OC(=O)C(c2cccc(F)c2)=C1c1ccc(S(C)(=O)=O)cc1 (configuration not stated) | > 10 | –
14 | 140 | 101 | 1.7 | CC1(O)OC(=O)C(c2ccc(Br)cc2)=C1c1ccc(S(C)(=O)=O)cc1 (configuration not stated) | 1.6 | IC50 [9]: > 100 µM
15 | 1900 | > 100 | > 33 | CC1(O)OC(=O)C(c2cccs2)=C1c1ccc(S(C)(=O)=O)cc1 (configuration not stated) | – | –
16 | 110 | 105 | – | CC1(O)OC(=O)C(c2ccc(Cl)cc2)=C1c1ccc(S(C)(=O)=O)cc1 (configuration not stated) | 1.4 | –
17 | 310 | 7 | 1.7 | CSc1ccc(C2=C(c3ccc(S(C)(=O)=O)cc3)C(C)(O)OC2=O)cc1 (configuration not stated) | – | IC50 [9]: 38 µM
18 | – | > 100 | – | CC1(O)OC(=O)C(c2cc3ccccc3s2)=C1c1ccc(S(C)(=O)=O)cc1 (configuration not stated) | – | –
19 | – | 10 | 0.5 | CCOC1(C)OC(=O)C(c2ccc(F)cc2)=C1c1ccc(S(C)(=O)=O)cc1 (configuration not stated) | – | –
20 | > 5000 | > 10 | > 33 | CC1(O)OC(=O)C(c2ccc(O)cc2)=C1c1ccc(S(C)(=O)=O)cc1 (configuration not stated) | – | –
21 | 110 | 81 | 2.2 | CC1(O)OC(=O)C(c2ccc(F)c(Cl)c2)=C1c1ccc(S(C)(=O)=O)cc1 (configuration not stated) | – | –
22 | 200 | > 300 | 6.3 | CC1(O)OC(=O)C(c2ccc(F)c(F)c2)=C1c1ccc(S(C)(=O)=O)cc1 (configuration not stated) | > 10 | –
23 | – | – | – | CC(=O)/C(=C(\C(=O)[O-])c1ccccc1)c1ccc(S(C)(=O)=O)cc1.[Na+] | – | solubility [11]: > 100 mg/mL
24 | 550 | > 100 | 13.4 | CC1(O)OC(=O)C(c2cc(F)cc(F)c2)=C1c1ccc(S(C)(=O)=O)cc1 (configuration not stated) | – | IC50 [9]: > 90 µM
25 | – | – | – | Cc1ccc(-c2cc(C(F)(F)F)nn2-c2ccc(S(N)(=O)=O)cc2)cc1 [CELECOXIB] | 3.2 | –
26 | – | – | – | CS(=O)(=O)c1ccc(C2=C(c3ccccc3)C(=O)OC2)cc1 [ROFECOXIB] | 1.5 | –

Row | SMILES | IC50 [6] [nM] | IC50 [7] [µM] | IC50 [8] [µM] | ED50 (Rattus norvegicus [5]) [mg/kg] | also measured
27 | CC1(O)OC(=O)C(c2ccc3ccccc3c2)=C1c1ccc(S(C)(=O)=O)cc1 (configuration not stated) | 450 | 30 | 3.2 | > 10 | –
